Results taken from ChEMBL document CHEMBL1697731, “Cheminformatics analysis of assertions mined from literature that describe drug-induced liver injury in different species” (Chem Res Toxicol, 2010).

Key:
[1] = tested on: Hepatotoxicity; test: Literature-mined compound from Fourches et al multi-species drug-induced liver injury (DILI) dataset, effect in non-rodents
[2] = tested on: Hepatotoxicity; test: Literature-mined compound from Fourches et al multi-species drug-induced liver injury (DILI) dataset, effect in humans; details: human
[3] = tested on: Hepatotoxicity; test: Literature-mined compound from Fourches et al multi-species drug-induced liver injury (DILI) dataset, effect in rodents; details: rodentia

IVERMECTIN
Hepatotoxicity [1]: no drug-induced liver injury reported
Hepatotoxicity [2]: drug-induced liver injury reported
Hepatotoxicity [3]: no drug-induced liver injury reported

COc1cc2nc(N3CCN(C(=O)c4ccco4)CC3)nc(N)c2cc1OC [PRAZOSIN]
Hepatotoxicity [1]: no drug-induced liver injury reported
Hepatotoxicity [2]: drug-induced liver injury reported
Hepatotoxicity [3]: drug-induced liver injury reported

CCc1nn(CCCN2CCN(c3cccc(Cl)c3)CC2)c(=O)n1CCOc1ccccc1 [NEFAZODONE]
Hepatotoxicity [1]: no drug-induced liver injury reported
Hepatotoxicity [2]: drug-induced liver injury reported
Hepatotoxicity [3]: no drug-induced liver injury reported

C[C@@H](c1ncncc1F)[C@](O)(Cn1cncn1)c1ccc(F)cc1F [VORICONAZOLE]
Hepatotoxicity [1]: no drug-induced liver injury reported
Hepatotoxicity [2]: drug-induced liver injury reported
Hepatotoxicity [3]: no drug-induced liver injury reported

CC(C(=O)O)c1ccc2c(c1)[nH]c1ccc(Cl)cc12 (stereo unspecified) [CARPROFEN]
Hepatotoxicity [1]: drug-induced liver injury reported
Hepatotoxicity [2]: no drug-induced liver injury reported
Hepatotoxicity [3]: no drug-induced liver injury reported

CCCCOCCOCCOCc1cc2c(cc1CCC)OCO2 [PIPERONYL BUTOXIDE]
Hepatotoxicity ([1]; Liver): no drug-induced liver injury reported
Hepatotoxicity ([2]; Liver): no drug-induced liver injury reported
Hepatotoxicity ([3]; Liver): drug-induced liver injury reported

NC(=O)c1ccccc1O [SALICYLAMIDE]
Hepatotoxicity [1]: no drug-induced liver injury reported
Hepatotoxicity [2]: drug-induced liver injury reported
Hepatotoxicity [3]: drug-induced liver injury reported

C[C@H](CCC(=O)O)[C@H]1CC[C@H]2[C@@H]3[C@@H](O)C[C@@H]4C[C@H](O)CC[C@]4(C)[C@H]3CC[C@]12C [URSODIOL]
Hepatotoxicity [1]: drug-induced liver injury reported
Hepatotoxicity [2]: drug-induced liver injury reported
Hepatotoxicity [3]: drug-induced liver injury reported

COc1cc(Cc2cnc(N)nc2N)cc(OC)c1OC [TRIMETHOPRIM]
Hepatotoxicity ([1]; Liver): no drug-induced liver injury reported
Hepatotoxicity ([2]; Liver): drug-induced liver injury reported
Hepatotoxicity ([3]; Liver): drug-induced liver injury reported

CCCCCCCCCCCCCCCCOP(=O)([O-])OCC[N+](C)(C)C [MILTEFOSINE]
Hepatotoxicity [1]: no drug-induced liver injury reported
Hepatotoxicity [2]: drug-induced liver injury reported
Hepatotoxicity [3]: no drug-induced liver injury reported

O=c1[nH]c(=O)n(C2CCCO2)cc1F (stereo unspecified) [TEGAFUR]
Hepatotoxicity [1]: no drug-induced liver injury reported
Hepatotoxicity [2]: drug-induced liver injury reported
Hepatotoxicity [3]: no drug-induced liver injury reported

COc1ccc2cc(CCC(C)=O)ccc2c1 [NABUMETONE]
Hepatotoxicity [1]: no drug-induced liver injury reported
Hepatotoxicity [2]: no drug-induced liver injury reported
Hepatotoxicity [3]: drug-induced liver injury reported

COc1ccc2c(c1)c(CC(=O)O)c(C)n2C(=O)c1ccc(Cl)cc1 [INDOMETHACIN]
Hepatotoxicity [1]: drug-induced liver injury reported
Hepatotoxicity [2]: drug-induced liver injury reported
Hepatotoxicity [3]: drug-induced liver injury reported

CS(=O)(=O)O.Cc1ccc(NC(=O)c2ccc(CN3CCN(C)CC3)cc2)cc1Nc1nccc(-c2cccnc2)n1 [IMATINIB MESYLATE]
Hepatotoxicity [1]: no drug-induced liver injury reported
Hepatotoxicity [2]: drug-induced liver injury reported
Hepatotoxicity [3]: drug-induced liver injury reported

Cc1cc2c(s1)Nc1ccccc1N=C2N1CCN(C)CC1 [OLANZAPINE]
Hepatotoxicity [1]: no drug-induced liver injury reported
Hepatotoxicity [2]: drug-induced liver injury reported
Hepatotoxicity [3]: no drug-induced liver injury reported

CCCc1nc(C(C)(C)O)c(C(=O)OCc2oc(=O)oc2C)n1Cc1ccc(-c2ccccc2-c2nnn[nH]2)cc1 [OLMESARTAN MEDOXOMIL]
Hepatotoxicity [1]: no drug-induced liver injury reported
Hepatotoxicity [2]: no drug-induced liver injury reported
Hepatotoxicity [3]: drug-induced liver injury reported

NCCCC[C@H](NC(=O)[C@@H]1CCCN1C(=O)[C@@H]1CSSC[C@H](N)C(=O)N[C@@H](Cc2ccccc2)C(=O)N[C@@H](Cc2ccccc2)C(=O)N[C@@H](CCC(N)=O)C(=O)N[C@@H](CC(N)=O)C(=O)N1)C(=O)NCC(N)=O [FELYPRESSIN]
Hepatotoxicity [1]: drug-induced liver injury reported
Hepatotoxicity [2]: no drug-induced liver injury reported
Hepatotoxicity [3]: no drug-induced liver injury reported

[H]/N=C(/N)N[C@H]1[C@H](O)[C@@H](O)[C@H](O[C@@H]2O[C@@H](C)[C@](O)(C=O)[C@H]2O[C@@H]2O[C@@H](CO)[C@H](O)[C@@H](O)[C@@H]2NC)[C@@H](N/C(N)=N\[H])[C@@H]1O [STREPTOMYCIN]
Hepatotoxicity ([1]; Liver): drug-induced liver injury reported
Hepatotoxicity ([2]; Liver): drug-induced liver injury reported
Hepatotoxicity ([3]; Liver): drug-induced liver injury reported

CC[C@H](C)C(=O)O[C@H]1C[C@H](O)C=C2C=C[C@H](C)[C@H](CC[C@@H](O)C[C@@H](O)CC(=O)O)[C@H]21 [PRAVASTATIN]
Hepatotoxicity [1]: drug-induced liver injury reported
Hepatotoxicity [2]: drug-induced liver injury reported
Hepatotoxicity [3]: drug-induced liver injury reported

Cc1cccc(Nc2ccccc2C(=O)O)c1C [MEFENAMIC ACID]
Hepatotoxicity ([1]; Liver): no drug-induced liver injury reported
Hepatotoxicity ([2]; Liver): drug-induced liver injury reported
Hepatotoxicity ([3]; Liver): drug-induced liver injury reported

O=C1CN(/N=C/c2ccc([N+](=O)[O-])o2)C(=O)N1CO [NIFURTOINOL]
Hepatotoxicity [1]: no drug-induced liver injury reported
Hepatotoxicity [2]: drug-induced liver injury reported
Hepatotoxicity [3]: no drug-induced liver injury reported

CCCCNc1cc(C(=O)O)cc(S(N)(=O)=O)c1Oc1ccccc1 [BUMETANIDE]
Hepatotoxicity [1]: drug-induced liver injury reported
Hepatotoxicity [2]: no drug-induced liver injury reported
Hepatotoxicity [3]: no drug-induced liver injury reported

CCOC(=O)n1ccn(C)c1=S [CARBIMAZOLE]
Hepatotoxicity [1]: no drug-induced liver injury reported
Hepatotoxicity [2]: drug-induced liver injury reported
Hepatotoxicity [3]: no drug-induced liver injury reported

CCC(C(=O)O)C1(O)CCCCC1 (stereo unspecified) [CYCLOBUTYROL]
Hepatotoxicity [1]: no drug-induced liver injury reported
Hepatotoxicity [2]: no drug-induced liver injury reported
Hepatotoxicity [3]: drug-induced liver injury reported

CS(=O)(=O)c1ccc(C2=C(c3ccccc3)C(=O)OC2)cc1 [ROFECOXIB]
Hepatotoxicity [1]: no drug-induced liver injury reported
Hepatotoxicity [2]: drug-induced liver injury reported
Hepatotoxicity [3]: drug-induced liver injury reported

FC(F)OC(F)(F)C(F)Cl (stereo unspecified)
Hepatotoxicity [1]: drug-induced liver injury reported
Hepatotoxicity [2]: drug-induced liver injury reported
Hepatotoxicity [3]: drug-induced liver injury reported

C[C@]12CC[C@@H]3c4ccc(O)cc4CC[C@H]3[C@@H]1CCC2=O [ESTRONE]
Hepatotoxicity [1]: no drug-induced liver injury reported
Hepatotoxicity [2]: drug-induced liver injury reported
Hepatotoxicity [3]: drug-induced liver injury reported
